Assay results: patent EP4703354A1, “COMPOUND AS CCR6 ANTAGONIST, AND PHARMACEUTICAL COMPOSITION AND USE THEREOF” (Wuhan Createrna Science and Technology Co.,Ltd., priority 2023, dated 2024)

Columns and labels:
human CCR6 = biological target: T1, human CCR6 (Homo sapiens, UniProt P51684); test: human CCR6 calcium flux activity (FLIPR, HEK293 cells stably expressing human CCR6, CCL20 stimulation); format: cell-based; conditions: HEK293 cells stably expressing human CCR6, EC80 human MIP-3 alpha/CCL20; read-out: CCR6 inhibitory activity, IC50
T1 construct: expressed in transfected cells; host or cells: HEK293
T1 sequence (P51684 1-374): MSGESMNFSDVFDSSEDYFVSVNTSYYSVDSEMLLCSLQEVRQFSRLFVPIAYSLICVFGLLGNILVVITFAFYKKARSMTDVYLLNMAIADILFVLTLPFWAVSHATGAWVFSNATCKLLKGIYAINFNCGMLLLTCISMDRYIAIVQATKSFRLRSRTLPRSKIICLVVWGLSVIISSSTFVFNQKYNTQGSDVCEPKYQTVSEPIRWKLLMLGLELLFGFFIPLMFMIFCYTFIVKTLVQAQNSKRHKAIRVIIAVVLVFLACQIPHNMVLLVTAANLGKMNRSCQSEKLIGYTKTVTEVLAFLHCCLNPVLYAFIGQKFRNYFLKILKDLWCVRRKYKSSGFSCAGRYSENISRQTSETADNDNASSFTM
Protocol: The activity of the compounds was evaluated using HEK293 cells stably expressing human CCR6 via the FLIPR platform. A 384-well black cell culture plate (Greiner, 781946) was used, with a seeding density of 20,000 cells/well, and incubated overnight at 37°C in a 5% CO2 incubator. The culture medium in the cell plate wells was removed, and 20 µL of Fluo-4 Direct™ Calcium Assay Buffer (Invitrogen, F10471, Component C), 20 µL of 2× Fluo-4 Direct™ Calcium Assay Reagent (Invitrogen, F10471, Component A) working solution, and 10 µL of 6× test compound working solution were sequentially added to each well. The cell plate was incubated in a 37 °C, 5% CO2 incubator for 50 min, followed by a 10 min incubation at room temperature. Additionally, a 6×EC80 human MIP-3 alpha/CCL20 (MCE, HY-P7262) working solution was prepared. After the incubation was completed, 10 µL/well of the 6×EC80 human MIP-3 alpha/CCL20 working solution was transferred to the cell plate using a FLIPR instrument, and the fluorescence signal changes at an excitation wavelength of 494 nm and an emission wavelength of 516 nm were recorded over 90 seconds. The difference between the maximum fluorescence signal (RFUMax) and the minimum fluorescence signal (RFUMin) was used as the output signal. The compound inhibition rate and the log value of the compound concentration were calculated, and a four-parameter fitting analysis was performed using GraphPad Prism 8 software to obtain the IC50 value of the test compound.

[1] = in vivo pharmacokinetic study in SD rats; conditions: male, rat, plasma; for bioavailability: 1 mg/kg PO vs 1 mg/kg IV, read-out: Oral bioavailability F (%)
Protocol: 2.2.1 Rats: SD rats, SPF grade, 6 rats per compound, male, body weight range 180-200 g.
2.2.2 Housing conditions: The animals were housed in an SPF-grade animal facility with free access to food and water, three per cage, under a 12/12-hour light/dark cycle (7:00 am/7:00 pm), at a temperature of 23 ± 3°C.
2.2.3 Drug preparation: The compound was precisely weighed, mixed with the required volume of 1% Tween 80, vortexed for 2 min, and then sonicated for 5 min until no visible particles remained. The mixture was subsequently stirred on a magnetic stirrer for 20 min, and the middle layer of the drug solution was collected for administration. For the IV group, the compound was accurately weighed, dissolved in the required volume of 50% PEG400, sonicated for 10 min, and vortexed until clear before administration.
The rats were randomly divided into 2 groups based on body weight, with 3 rats per compound per group. Group 1 was administered a single oral gavage dose (fasted), and Group 2 was administered a single tail vein bolus injection. Blood collection time points: for the po group, blood was collected at 0.167 h, 0.5 h, 1 h, 2 h, 3 h, 4 h, 6 h, and 8 h; for the iv group, blood was collected at 0.033 h, 0.167 h, 0.5 h, 1 h, 2 h, 4 h, 6 h, and 8 h.
After administration to the rats, blood was collected from the orbital venous plexus according to the sampling time points. Approximately 0.2-0.3 mL of blood was collected at each time point into anticoagulant EP tubes (containing 4 µL of EDTA-K2, 375 mg/mL, dried at 50°C). The tubes were slowly inverted up and down three times and stored in an ice box (for no more than 30 minutes). Centrifugation was performed at 4°C at 3000 × g for 10 minutes, and the supernatant was transferred to labeled EP tubes for bioanalytical testing. If testing could not be performed on the same day, the samples were stored at -80°C until analysis (care was taken to avoid multiple freeze/thaw cycles).
The data were analyzed using WinNonlin via a non-compartmental model to obtain PK parameters (Cmax, AUC0-last, AUCinf, T1/2, etc., selected based on different routes of administration). For specific data, please refer to Table 2. Table 2. PK experimental results of compounds in SD rats

Compound	IC50 (human CCR6) [nM]	further results
Cc1cncnc1C(Nc1c(Nc2ccnc(C(=O)N(C)C)c2O)c(=O)c1=O)C1(C)CCCC1 (stereo not shown) [compound 052, 3-hydroxy-N,N-dimethyl-4-((2-(((1-methylcyclopentyl)(5-methylpyrimidin-4-yl)methyl)amino)-3,4-dioxocyclobut-1-en-1-yl)amino)picolinamide]	196	
Cc1cccnc1[C@H](Nc1c(Nc2ccnc(C(=O)N3CCOCC3)c2O)c(=O)c1=O)C1(C)CCCC1 [compound 059, (R)-3-((3-hydroxy-2-(morpholine-4-carbonyl)pyridin-4-yl)amino)-4-(((1-methylcyclopentyl)(3-methylpyridin-2-yl)methyl)amino)cyclobut-3-ene-1,2-dione]	13.6	
Cc1cnc([C@H](Nc2c(Nc3ccnc(C(=O)N(C)C)c3O)c(=O)c2=O)C2(C)CCCC2)c(C)c1 [compound 061, (R)-4-((2-(((3,5-dimethylpyridin-2-yl)(1-methylcyclopentyl)methyl)amino)-3,4-dioxocyclobut-1-en-1-yl)amino)-3-hydroxy-N,N-dimethylpicolinamide]	152	
Cc1cccnc1[C@H](Nc1c(Nc2ccnc(C(=O)N(C)C)c2O)c(=O)c1=O)C12CC(C1)C2 [compound 077, (R)-4-((2-((bicyclo[1.1.1]pentan-1-yl(3-methylpyridin-2-yl)methyl)amino)-3,4-dioxocyclobut-1-en-1-yl)amino)-3-hydroxy-N,N-dimethylpicolinamide]	17.6	bioavailability [1]: 39.8%; AUC(0-t) ([1]; 1 mg/kg, IV): 683 ng·h/mL; Cmax ([1]; 1 mg/kg, IV): 2280 ng/mL; AUC(0-t) ([1]; 1 mg/kg, PO): 272 ng·h/mL; Cmax ([1]; 1 mg/kg, PO): 158 ng/mL
Cc1cccnc1[C@H](Nc1c(Nc2ccnc(C(=O)N(C)C)c2O)c(=O)c1=O)C1(C)CC(F)(F)C1 [compound 079, (R)-4-((2-(((3,3-difluoro-1-methylcyclobutyl)(3-methylpyridin-2-yl)methyl)amino)-3,4-dioxocyclobut-1-en-1-yl)amino)-3-hydroxy-N,N-dimethylpicolinamide]	17.3	bioavailability [1]: 42.5%; AUC(0-t) ([1]; 1 mg/kg, IV): 1180 ng·h/mL; Cmax ([1]; 1 mg/kg, IV): 3670 ng/mL; AUC(0-t) ([1]; 1 mg/kg, PO): 499 ng·h/mL; Cmax ([1]; 1 mg/kg, PO): 566 ng/mL; half-life ([1]; 1 mg/kg, PO): 2.01 h

The next lines start with results.

IC50 (human CCR6) [nM]	Compound	further results
73.6	Cc1cccnc1[C@H](Nc1c(Nc2ccc(C)c(C(=O)N(C)C)c2O)c(=O)c1=O)C1(C)CCCC1 [compound 103, (R)-2-hydroxy-N,N,6-trimethyl-3-((2-(((1-methylcyclopentyl)(3-methylpyridin-2-yl)methyl)amino)-3,4-dioxocyclobut-1-en-1-yl)amino)benzamide]	
4	Cc1cccnc1[C@H](Nc1c(Nc2ccc(F)c(C(=O)N(C)C)c2O)c(=O)c1=O)C1(C)CCCC1 [compound 104, (R)-6-fluoro-2-hydroxy-N,N-dimethyl-3-((2-(((1-methylcyclopentyl)(3-methylpyridin-2-yl)methyl)amino)-3,4-dioxocyclobut-1-en-1-yl)amino)benzamide]	
183	CN(C)C(=O)c1nccc(Nc2c(N[C@@H](C#Cc3ccccn3)C3(C)CCCC3)c(=O)c2=O)c1O [compound 118, (R)-3-hydroxy-N,N-dimethyl-4-((2-((1-(1-methylcyclopentyl)-3-(pyridin-2-yl)prop-2-yn-1-yl)amino)-3,4-dioxocyclobut-1-en-1-yl)amino)picolinamide]	
86.2	Cc1ccc(F)nc1C(Nc1c(Nc2ccnc(C(=O)N(C)C)c2O)c(=O)c1=O)C1(C)CC2CC2C1 (stereo not shown) [compound 121, 4-((2-(((6-fluoro-3-methylpyridin-2-yl)(3-methylbicyclo[3.1.0]hexan-3-yl)methyl)amino)-3,4-dioxocyclobut-1-en-1-yl)amino)-3-hydroxy-N,N-dimethylpicolinamide]	
181	Cc1cccnc1C(Nc1c(Nc2ccnc(C(=O)N(C)C)c2O)c(=O)c1=O)C1(C)CC2CC2C1 (stereo not shown) [compound 122, 3-hydroxy-N,N-dimethyl-4-((2-(((3-methylbicyclo[3.1.0]hexan-3-yl)(3-methylpyridin-2-yl)methyl)amino)-3,4-dioxocyclobut-1-en-1-yl)amino)picolinamide]	
265	Cc1cccnc1C(Nc1c(Nc2ccnc(C(=O)N(C)C)c2O)c(=O)c1=O)C1(C)CCC2CC21 (stereo not shown) [compound 123, 3-hydroxy-N,N-dimethyl-4-((2-(((2-methylbicyclo[3.1.0]hexan-2-yl)(3-methylpyridin-2-yl)methyl)amino)-3,4-dioxocyclobut-1-en-1-yl)amino)picolinamide]	
